As a reminder, the ILS is the gain in survival time of treated over control animals, in per cent.

One test concerns L1210/PDD. Nature of the test: antitumor activity in mice implanted with a tumor cell line resistant to cisDDP (Table III). The class given is in vivo. Particulars: q4d × 4.
The test system of a further test is L1210/0. The test is described as follows: antitumor activity in mice implanted intraperitoneally with L1210 (Table II). Further details: Mean: unit not given beside the values. To be noted: d 1, 5, 9, 13. It counts as in vivo. As to the method:
The optimal dose is 15 mg/kg giving a %ILS of 51% versus control mice implanted with L1210 but not treated with the drug.

With `N.N.[Cl][Pt][Cl]` [CisDDP, cis-diamminedichloroplatinum (II)], the ILS with L1210/PDD (dose 2.0) was found to be 0%; in the test with L1210/PDD (dose 3.0), 0%; in the test with L1210/PDD (dose 4.5), 0%; with L1210/0 (first L1210/0 group, dose 3), 34%; in the test with L1210/0 (second L1210/0 group, dose 2.0), 26%; with L1210/0 (second L1210/0 group, dose 3.0), 51%. For the same molecule, the ILS with L1210/0 (second L1210/0 group, dose 4.5) is given as 113%. Also, the Mean with L1210/PDD (dose 2.0) is given as 11.0; in the test on L1210/PDD (dose 3.0), 10.8; with L1210/PDD (dose 4.5), 11.0; in the test on L1210/0 (first L1210/0 group, dose 3) it was 11.9; in the test with L1210/0 (second L1210/0 group, dose 2.0) it was 11.6; with L1210/0 (second L1210/0 group, dose 3.0), 13.9. Besides, the Mean in the test on L1210/0 (second L1210/0 group, dose 4.5) came to 19.6.

Values taken from patent US4843161A, “Platinum-intercalative complexes for the treatment of cancer” (Massachusetts Institute of Technology, priority 1984, dated 1989).
